Measurements taken from patent US20100016221A1, “METHOD OF DEGRADING PROTEIN BY CHAPERONE-MEDIATED AUTOPHAGY” (RIKEN, priority 2008, published 2010).
“Also recorded” adds a separate entry of the source. Square brackets hold non-standard residues; d marks the D form. Ends that are not written are not given here. Peptide text beside a SMILES is read from it. * marks the point of attachment. Sta = CC(C)C[C@H](N)[C@@H](O)CC(=O)O; Isovaleryl = CC(C)CC(=O)*

Key:
[1] = biological target: T1, tNhtt-150Q polyQ protein (Homo sapiens, UniProt P42858); assay: Chase experiment in 150Q Neuro2a cells (Western blot); format: cell-based
T1 construct: N-terminal fragment of human huntington exon 1 (tNhtt); expressed in transfected cells
Protocol: (§1) To determine whether tNhtt-polyQ degrades faster in the presence of RHQ, chase experiments were performed. Neuro2a were first induced to express tNhtt-polyQ for 20 hrs in case of 60Q and 12 hrs in case of 150Q cells and then transfected with the tested constructs. Four hours later, ponaA was removed; cells were washed with PBS and incubated in the medium containing dbcAMP (for differentiation) for 24 hrs. Cells were lysed and the levels of tNhtt-polyQ were analyzed by Western blotting.
(§2) Cells were washed twice with ice-cold PBS, scraped, and resuspended in lysis buffer (0.5% Triton X-100 in PBS, 0.5 mM phenylmethylsulfonyl fluoride, Complete protease inhibitor mixture (Roche Applied Sciences)). After incubating on ice for 30 minutes lysates were briefly sonicated. Equal amounts of protein were boiled for 5 minutes in 2× SDS-sample buffer, separated by 5-12% gradient SDS-PAGE and electrophoretically transferred to a polyvinylidene difluoride (PVDF) membrane (Millipore). The membranes were blocked in 5% skim milk in 0.05% Tween 20/Tris-buffered saline (TBST) and incubated with primary antibody (dilutions in accordance to manufacturer's recommendations) overnight at […]. […] Immunoreactive proteins were detected with enhanced chemiluminescence reagents (Amersham Biosciences). […]

[2] = system: polyQ inclusions in 150Q-nls Neuro2a cells (tNhtt-EGFP-150Q-nls); assay: ArrayScan quantification of polyQ inclusion formation in inducible 150Q-nls Neuro2a cells; format: cell-based, mouse
Protocol: (§3) Mouse neuroblastoma (Neuro2a) cells were maintained in Dulbecco's modified Eagle's medium (Sigma) supplemented with 10% heat-inactivated fetal bovine serum (Sigma), 100 U/ml penicillin and 100 μg/ml streptomycin (Invitrogen) at 37° C. in an atmosphere containing 5% CO2 and 95% air. Establishment of stable Neuro2a cell lines with the ecdysone-inducible mammalian expression system (Invitrogen), that express tNhtt-EGFP-16Q (16Q Neuro2a cells), tNhtt-EGFP-150Q (150Q Neuro2a cells) and tNhtt-EGFP-150Q-nls (150Q-nls Neuro2a cells) has been described earlier (T. Nagai et al., supra, H. Doi et al., supra, E. A. Zemskov et al., J Neurochem. 87, 2 (2003)). Neuro2a cells were differentiated with 5mM dbcAMP (N^6, 2′-O-dibutyryladenosine-3′,5′-cyclic monophosphate sodium salt) (Nacalai Tesque) and induced to express tNhtt-polyQ with 2 μM ponasterone A (ponA; Invitrogen) for indicated times. Neuro2a/FRT/TR cell line was generated as described in the protocol for Flp-in/T-Rex system (Invitrogen). Neuro2a tNhtt-62Q-kikGR cell line was generated by transfecting Neuro2a/FRT/TR cells with the pFRT-HD62-KikGR and pOG44 (Invitrogen) constructs using Lipofectamine 2000 reagent and selected with 200 μg/ml hygromycin. The expression of the pFRT-tNhtt-62Q-KikGR was induced by 18 doxycycline treatment of the cells. For the photo-induced kikGR cleavage, cells were exposed to ˜400 nm wavelength for 5 minutes. […]
(§4) For the quantification of the inclusions, cells were grown in 24-well plates for indicated periods, fixed in 4% paraformaldehyde, washed and incubated with Hoechst 33258 at 1/1000 dilution in PBS. Cells were analyzed by ArrayScan® V^TI High Content Screening (HSC) Reader (Cellomics) using Target Activation BioApplication (TABA). TABA analyzes images acquired by a HSC Reader and provides measurements of the intracellular fluorescence intensity and localization on a cell-by-cell basis.
In each well, at least 10000 cells were counted and quantified for the presence of the inclusions. Nuclei stained with Hoechst 33285 provided the autofocus target and their count gave the exact number of the quantified cells. The screening itself consisted of two scans using Hoechst, FITC (for GFP) and TRITC (for RFP) fluorescence. Firstly, number of inclusions in transfected cells was calculated when fluorescent spots at size of at least 5 pixels (magnification 20× for cytoplasmic and 40× for nuclear aggregates) with average GFP intensity more than 1500 in the RFP background were counted. […] The percentage of the cells with aggregates was then calculated. When the constructs without mRFP were used for transfection, the procedure was same, except the RFP intensity was not measured. […] Data was generated from the quantification of more than 250,000 cells in each experimental set-up.

[3] = biological target: T2, tNhtt-62Q-kikGR protein (Homo sapiens, UniProt P42858, INS38QQQQQQQQQQQQQQQQQQQQQQQQQQQQQQQQQQQQQQQQQ); assay: Chase experiment in tNhtt-62Q-kikGR Neuro2a cells after photo-cleavage; format: cell-based; conditions: twelve hours after irradiation
T2 construct: inserting the htt exon 1 with 62Q (HD62); monomeric KikGR (mKikGR; KikGR BAD95669 with A17S, G32R, I37T, N39T, C116T, V126T, N161E, Q167E, H219Y, L222T, P223Y) (C); expressed in transfected cells; host or cells: Neuro2a/FRT/TR cells (Flp-in/T-Rex), doxycycline induced
Protocol: Mouse neuroblastoma (Neuro2a) cells were maintained in Dulbecco's modified Eagle's medium (Sigma) supplemented with 10% heat-inactivated fetal bovine serum (Sigma), 100 U/ml penicillin and 100 μg/ml streptomycin (Invitrogen) at 37° C. in an atmosphere containing 5% CO2 and 95% air. Establishment of stable Neuro2a cell lines with the ecdysone-inducible mammalian expression system (Invitrogen), that express tNhtt-EGFP-16Q (16Q Neuro2a cells), tNhtt-EGFP-150Q (150Q Neuro2a cells) and tNhtt-EGFP-150Q-nls (150Q-nls Neuro2a cells) has been described earlier (T. Nagai et al., supra, H. Doi et al., supra, E. A. Zemskov et al., J Neurochem. 87, 2 (2003)). […]
Neuro2a tNhtt-62Q-kikGR cells were induced for 24 hours, and then the 62Q-kikGR was cleaved by 5 minutes irradiation of the cells. Chase phase lasted for 12 hours before the cells were collected and analyzed.
(§5) Cells were washed twice with ice-cold PBS, scraped, and resuspended in lysis buffer (0.5% Triton X-100 in PBS, 0.5 mM phenylmethylsulfonyl fluoride, Complete protease inhibitor mixture (Roche Applied Sciences)). […] Immunoreactive proteins were detected with enhanced chemiluminescence reagents (Amersham Biosciences). […]

[4] = biological target: T3, tNhtt-150Q (Homo sapiens, UniProt P42858); assay: Western blot of polyQ aggregation (gel top) in 150Q Neuro2a cells; format: cell-based; conditions: expression of mRFP-tagged constructs
T3 construct: N-terminal fragment of human huntington exon 1 (tNhtt); expressed in transfected cells
Protocol: as §3, with “(Invitrogen).” for “(Invitrogen). Neuro2a tNhtt-62Q-kikGR cell line was generated by transfecting Neuro2a/FRT/TR cells with the pFRT-HD62-KikGR and pOG44 (Invitrogen) constructs using Lipofectamine 2000 reagent and selected with 200 μg/ml hygromycin. The expression of the pFRT-tNhtt-62Q-KikGR was induced by 18 doxycycline treatment of the cells. For the photo-induced kikGR cleavage, cells were exposed to ˜400 nm wavelength for 5 minutes.”
as §5

[5] = biological target: T4, soluble tNhtt-60Q protein (Homo sapiens, UniProt P42858, INS38QQQQQQQQQQQQQQQQQQQQQQQQQQQQQQQQQQQQQQQ); assay: Chase experiment in 60Q Neuro2a cells (Western blot); format: cell-based; conditions: after 24 hours chase
T4 construct: N-terminal fragment of human huntington exon 1 (tNhtt) encoding 60 CAG repeats; expressed in transfected cells; host or cells: 60Q Neuro2a cells (mouse neuroblastoma), ponasterone A induced
Protocol: as §1, §2

[6] = system: polyQ inclusions in 150Q Neuro2a cells; assay: Confocal imaging of tested constructs in 150Q Neuro2a cells; format: cell-based, mouse
Protocol: as §3

[7] = system: tNhtt-16Q; assay: Western blot of tNhtt-16Q levels in inducible Neuro2a cells; format: cell-based, human; conditions: inducible 16Q Neuro2a cells, transfection
Protocol: as §3, with “(Invitrogen).” for “(Invitrogen). Neuro2a tNhtt-62Q-kikGR cell line was generated by transfecting Neuro2a/FRT/TR cells with the pFRT-HD62-KikGR and pOG44 (Invitrogen) constructs using Lipofectamine 2000 reagent and selected with 200 μg/ml hygromycin. The expression of the pFRT-tNhtt-62Q-KikGR was induced by 18 doxycycline treatment of the cells. For the photo-induced kikGR cleavage, cells were exposed to ˜400 nm wavelength for 5 minutes.”
as §5

[8] = system: polyQ inclusions in 150Q Neuro2a cells (tNhtt-EGFP-150Q); assay: ArrayScan quantification of polyQ inclusion formation in inducible 150Q Neuro2a cells; format: cell-based, mouse
Protocol: Mouse neuroblastoma (Neuro2a) cells were maintained in Dulbecco's modified Eagle's medium (Sigma) supplemented with 10% heat-inactivated fetal bovine serum (Sigma), 100 U/ml penicillin and 100 μg/ml streptomycin (Invitrogen) at 37° C. in an atmosphere containing 5% CO2 and 95% air. Establishment of stable Neuro2a cell lines with the ecdysone-inducible mammalian expression system (Invitrogen), that express tNhtt-EGFP-16Q (16Q Neuro2a cells), tNhtt-EGFP-150Q (150Q Neuro2a cells) and tNhtt-EGFP-150Q-nls (150Q-nls Neuro2a cells) has been described earlier (T. Nagai et al., supra, H. Doi et al., supra, E. A. Zemskov et al., J Neurochem. 87, 2 (2003)). Neuro2a cells were differentiated with 5mM dbcAMP (N^6, 2′-O-dibutyryladenosine-3′,5′-cyclic monophosphate sodium salt) (Nacalai Tesque) and induced to express tNhtt-polyQ with 2 μM ponasterone A (ponA; Invitrogen) for indicated times. Neuro2a/FRT/TR cell line was generated as described in the protocol for Flp-in/T-Rex system (Invitrogen). Neuro2a tNhtt-62Q-kikGR cell line was generated by transfecting Neuro2a/FRT/TR cells with the pFRT-HD62-KikGR and pOG44 (Invitrogen) constructs using Lipofectamine 2000 reagent and selected with 200 μg/ml hygromycin. The expression of the pFRT-tNhtt-62Q-KikGR was induced by 18 doxycycline treatment of the cells. For the photo-induced kikGR cleavage, cells were exposed to ˜400 nm wavelength for 5 minutes. Rat pheochromocytoma (PC12) cells were grown in the same conditions as Neuro2a cells, except for the serum composition of 5% of fetal bovine and 10% of horse serum (Sigma). All transient transfections were performed with Lipofectamine 2000 (Invitrogen) according to the manufacturer's instruction.
as §4
In each well, at least 10000 cells were counted and quantified for the presence of the inclusions. Nuclei stained with Hoechst 33285 provided the autofocus target and their count gave the exact number of the quantified cells. The screening itself consisted of two scans using Hoechst, FITC (for GFP) and TRITC (for RFP) fluorescence. Firstly, number of inclusions in transfected cells was calculated when fluorescent spots at size of at least 5 pixels (magnification 20× for cytoplasmic and 40× for nuclear aggregates) with average GFP intensity more than 1500 in the RFP background were counted. Secondly, nuclei were defined as the objects of interest and the cells with average intensity more than 50 within 3 pixels from the nucleus were selected for the analysis. The percentage of the cells with aggregates was then calculated. When the constructs without mRFP were used for transfection, the procedure was same, except the RFP intensity was not measured. Scanning was performed with triplicate or quadruplicate in each experimental condition. Data was generated from the quantification of more than 250,000 cells in each experimental set-up.

[9] = system: 150Q-nls Neuro2a cells; assay: Cell death assay (propidium iodide uptake) in 150Q-nls Neuro2a cells; format: cell-based, mouse; conditions: after 48 hours of induction
Protocol: as §3, with “(Invitrogen).” for “(Invitrogen). Neuro2a tNhtt-62Q-kikGR cell line was generated by transfecting Neuro2a/FRT/TR cells with the pFRT-HD62-KikGR and pOG44 (Invitrogen) constructs using Lipofectamine 2000 reagent and selected with 200 μg/ml hygromycin. The expression of the pFRT-tNhtt-62Q-KikGR was induced by 18 doxycycline treatment of the cells. For the photo-induced kikGR cleavage, cells were exposed to ˜400 nm wavelength for 5 minutes.”
(§6) For quantification of cell death, 5 μg/ml each of Hoechst 33342 and propidium iodide (PI) were added to differentiated and induced Neuro2a cells transiently transfected with either of the tested constructs (FIG. 6A). After 10 minutes at 37° C., the number of cells with PI uptake over the total number of cells was calculated by ArrayScan.

[10] = system: 150Q Neuro2a cells; assay: Cell death assay (propidium iodide uptake) in 150Q Neuro2a cells; format: cell-based, mouse; conditions: after 60 hours of induction
Protocol: as §3, with “(Invitrogen).” for “(Invitrogen). Neuro2a tNhtt-62Q-kikGR cell line was generated by transfecting Neuro2a/FRT/TR cells with the pFRT-HD62-KikGR and pOG44 (Invitrogen) constructs using Lipofectamine 2000 reagent and selected with 200 μg/ml hygromycin. The expression of the pFRT-tNhtt-62Q-KikGR was induced by 18 doxycycline treatment of the cells. For the photo-induced kikGR cleavage, cells were exposed to ˜400 nm wavelength for 5 minutes.”
as §6

[11] = system: PC12 cells; assay: Inclusion formation of tNhtt-60Q-Venus with or without HSC70bm in PC12 cells; format: cell-based, rat; conditions: 10 mM 3MA, 10 μM pepstatin A
Protocol: The tNhtt-16Q-EGFP and tNhtt-150Q-EGFP plasmids for transient transfection were prepared by the introduction of the coding sequence into pcDNA3.1 vector (Invitrogen). […] HSC70bm were amplified with primers containing SalI in the forward and XmaI cutting site in the reverse primer from the 60QHsc construct. […] To produce molecules without mRFP tag, all constructs were amplified using primers containing BamHI in the forward and XbaI in the reverse primer, respectively, and introduced to pcDNA3.1 vector.
Rat pheochromocytoma (PC12) cells were grown in the same conditions as Neuro2a cells, except for the serum composition of 5% of fetal bovine and 10% of horse serum (Sigma). […]
In each well, at least 10000 cells were counted and quantified for the presence of the inclusions. […] The screening itself consisted of two scans using Hoechst, FITC (for GFP) and TRITC (for RFP) fluorescence. […] The percentage of the cells with aggregates was then calculated. When the constructs without mRFP were used for transfection, the procedure was same, except the RFP intensity was not measured. […]

T1 sequence (P42858 with tags, fused parts or gaps): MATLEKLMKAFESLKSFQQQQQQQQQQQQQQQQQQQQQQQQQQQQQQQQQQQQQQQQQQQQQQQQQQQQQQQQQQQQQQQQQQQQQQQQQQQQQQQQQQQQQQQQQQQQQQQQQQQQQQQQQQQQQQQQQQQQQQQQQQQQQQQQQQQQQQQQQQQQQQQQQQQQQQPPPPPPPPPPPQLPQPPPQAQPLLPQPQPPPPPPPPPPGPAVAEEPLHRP
T3 sequence (P42858 with tags, fused parts or gaps): as above
T4 sequence (P42858 with tags, fused parts or gaps with the stated changes): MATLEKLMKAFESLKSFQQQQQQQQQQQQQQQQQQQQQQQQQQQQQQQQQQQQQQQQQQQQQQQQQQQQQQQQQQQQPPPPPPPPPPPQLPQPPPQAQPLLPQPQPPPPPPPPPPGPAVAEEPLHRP
T2 sequence (P42858 with tags, fused parts or gaps with the stated changes): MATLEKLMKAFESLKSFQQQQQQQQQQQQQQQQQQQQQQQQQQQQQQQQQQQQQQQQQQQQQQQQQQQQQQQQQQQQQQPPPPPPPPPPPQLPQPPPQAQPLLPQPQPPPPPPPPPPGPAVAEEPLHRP

mRFP-HSC70bm-(QBP1)2 (MARVKKDQAEPLHRKFERQPPGSNWKWWPGIFDSNWKWWPGIFD; also: fused to mRFP) [RHQ]
clearance of aggregated and soluble polyQ ([1]; autophagy activation by serum withdrawal): almost complete clearance
degradation of the polyQ protein ([1]; chase 24 hours): enhanced degradation
decrease of the polyQ inclusion formation ([2]; 150Qnls Neuro2a cells, mRFP-tagged constructs, after 48 hours of differentiation and induction): 48.5%
decrease of full length (constitutively expressed) tNhtt-62Q-kikGR as compared to RQ [3]: 24%
decrease of levels of the cleaved form of tNhtt-62Q-kikGR protein as compared to RQ [3]: 45.6%
polyQ aggregation (gel top) [4]: much stronger effect; also recorded: markedly decreased
enhancement of degradation of soluble tNhtt-60Q protein as compared to R [5]: 43%
enhancement of degradation of soluble tNhtt-60Q protein as compared with RQ [5]: 37.4%
localization relative to polyQ inclusions [6]: co-localized with the polyQ inclusions
levels of tNhtt-16Q [7]: not affected
effect on polyQ aggregation after silencing of HSC70 and/or Lamp2a with shRNA ([8]; any knock-down combination): inhibited
decrease of inclusion formation ([8]; mRFP-tagged constructs, after 24 hours of differentiation and induction): 56.5%

(QBP1)2 (MSNWKWWPGIFDSNWKWWPGIFD) [reference compound]
reduction of aggregation compared to control counterparts (S and HS) ([2]; 150Q-nls Neuro2a cells, constructs without mRFP, 48 hours after induction): 24.7%
decrease of the percentage of PI-positive cells [9]: 17.7%
decrease of the percentage of PI-positive cells [10]: 12.3%
decrease of aggregation compared to control counterparts (S and HS) ([8]; constructs without mRFP, induced and differentiated for 24 hours): 32.6%

CC(C)CC(=O)N[C@H](C(=O)N[C@H](C(=O)N[C@@H](CC(C)C)[C@@H](O)CC(=O)N[C@@H](C)C(=O)N[C@@H](CC(C)C)[C@@H](O)CC(=O)O)C(C)C)C(C)C [pepstatin A] (Isovaleryl-VV[Sta]A[Sta]-OH)
influence of inhibitor on the effect of HSC70bm on 60Q aggregation [11]: alleviated the effect of HSC70bm
